Test results: patent US11154853B2, “Generation of data for use with antimicrobials” (GeneFluidics, Inc., priority 2017, dated 2021)
Read-outs that look alike come from different tables or passages of the source.

System: E. coli
Procedure: Susceptibility cultures can be started.
(§1) Then, the Proteus automated system can add 12 μL of 1M NaOH to the 30 μL sample. […] The Proteus system can then add 8 μL of 1M HCl. Ten microliters of the result can be placed on each of 4 sensors of the 16 available on the GeneFluidics, Inc. 16X EC chip. This chip can be incubated in the Proteus machine for 11 minutes at 43° C. After completion of this incubation, the chip can be washed and dried by Proteus. Ten microliters of 0.5 U/mL anti-fluorescein horseradish peroxidase (HRP) Fab fragments (Roche; diluted in 1.0% casein in […] phosphate-buffered saline, pH 7.4) can be injected into the sensor chambers and incubated for 2 minutes at 25° C.
as §1
For instance, a Helios potentiostat from GeneFluidics, Inc. was connected to the electrodes of the sensor chips and a potential of −250 mV was applied across the electrodes for one minute. During this time, the current generated by the electrochemical reaction was measured by the potentiostat. The average current measured in the final 10 seconds of the potentiostat reading constituted the final result of the assay.

## O=C(O)c1cn(C2CC2)c2cc(N3CCNCC3)c(F)cc2c1=O [ciprofloxacin]
0 minute susceptibility culture time, 0.4 μg antibiotic in 100 μL Mueller-Hinton broth, 5×10^5 CFU/mL
  average current signal of the four sensors (base susceptibility test): 30 nA
60 minute susceptibility culture time
  increase over the current level from base susceptibility test: 0%
60 minute susceptibility culture time, 0.4 μg antibiotic in 100 μL Mueller-Hinton broth
  current of processed sample: 30 nA
90 minute susceptibility culture time
  increase over the current level from base susceptibility test: 0%
E. coli from patient urine sample, at the concentration of antibiotic in the culture
  reported result (resistant / susceptible): susceptible
